# Assays:
# [1] = test system: plasma proteins; details: in vivo; cited from earlier work
# [2] = cited from earlier work
# [3] = test system: IL-4 or IL-5; assay: ELISpot assay for IL-4 or IL-5 production in PBLs from CAN patients; assay type: in vivo, human; details: following institution of ARB therapy (data not shown)
# Procedure: Once identified, study subjects were randomized and treated with either losartan (25-100 mg) as part of their anti-hypertensive regimen or with other types of anti-hypertensive agents, e.g., calcium channel blockers. Agents functioning as AT1R blockers were excluded. Neither group received ACE inhibitors. Study subjects were maintained on their standard immunosuppressive regimen (corticosteroids 5-10 mg orally daily; mycophenolate mofetil 500 to 1000 mg orally twice a day; and calcineurin inhibition with either tacrolimus (target levels 2-5 ng/ml), cyclosporine A (target levels 100-150 ng/ml), or rapamycin (target levels 5-15 ng/ml ). ELISpot assays were conducted according to the manufacturer's directions (Cellular Technology Ltd., Cleveland, Ohio). Briefly, after plating cells in the proliferation assay, the balance of the cells unused in that assay were used for the ELISpot assay at a concentration of 3×10^6 cells per ml. One hundred μl of RPMI media were added to each well with a multichannel pipetter. Aliquots of treated and untreated cells (300 μl) were added to the IFN-Γ and IL-5 wells with serial two-fold dilutions. The last row served as a media control. ELISpot plates were incubated for two days at 37EC. […] Plate images were then scanned into computer images and spots analyzed using Immunospot-brand software (from CTL Technologies).
# [4] = test system: IFN-Γ; assay: ELISpot assay for T cell generation of IFN-Γ in PBLs from CAN patients; assay type: in vivo, human
# Procedure: Once identified, study subjects were randomized and treated with either losartan (25-100 mg) as part of their anti-hypertensive regimen or with other types of anti-hypertensive agents, e.g., calcium channel blockers. Agents functioning as AT1R blockers were excluded. Neither group received ACE inhibitors. Study subjects were maintained on their standard immunosuppressive regimen (corticosteroids 5-10 mg orally daily; mycophenolate mofetil 500 to 1000 mg orally twice a day; and calcineurin inhibition with either tacrolimus (target levels 2-5 ng/ml), cyclosporine A (target levels 100-150 ng/ml), or rapamycin (target levels 5-15 ng/ml ). Eight to nine milliliters of whole blood taken at each time point from each individual were incubated at room temperature in 40 ml ACK lysis buffer (150 mM NH4Cl, 10 mM KHCO3, 0.1 mM Na2EDTA, pH 7.3) for 10 minutes to lyse red blood cells. Samples were then centrifuged at 1000 rpm. The supernatant was discarded. Cells were resuspended in 10 ml complete RPMI media (RPMI-1640, BioWhitaker, Walkersville, Md.) supplemented with FCS (Sigma Aldrich, St. Louis, Mo.); 2 mM L-glutamine (BioWhitaker); 50 μM 2-β-mercaptoethanol (Sigma Aldrich); 100 U/ml penicillin; and 100 μg/ml streptomycin sulfate (Sigma Aldrich). Twenty μl of this sample was removed for cell enumeration. Forty ml of complete RPMI media was then added to the remaining sample and this was centrifuged at 1000 rpm for 10 minutes. The resulting PBL pellet was resuspended in complete RPMI media at a concentration of 1.5×10^6 cells per ml. ELISpot assays were conducted according to the manufacturer's directions (Cellular Technology Ltd., Cleveland, Ohio). Briefly, after plating cells in the proliferation assay, the balance of the cells unused in that assay were used for the ELISpot assay at a concentration of 3×10^6 cells per ml. One hundred μl of RPMI media were added to each well with a multichannel pipetter. Aliquots of treated and untreated cells (300 μl) were added to the IFN-Γ and IL-5 wells with serial two-fold dilutions. The last row served as a media control. ELISpot plates were incubated for two days at 37EC. Plates were washed three times with PBS and then washed three times with PBS/Tween. Secondary detection antibodies (OptElA, IFN, and IL-5 obtained from the aforementioned kits) were diluted at 4 μl/ml in 1% BSA/PBS and added to the plates for 24 hours at 4EC. The plates were then washed four times with PBS/Tween. Streptavidin alkaline phosphatase 1:1000 (Dako Cytomation, Glostrop, Denmark, catalog no. D0396) 100 μl/well diluted in 1% BSA/PBS/Tween was then added to the plates at room temperature for two hours. […] Plate images were then scanned into computer images and spots analyzed using Immunospot-brand software (from CTL Technologies).
# [5] = test system: STAT1; details: losartan treatment; cited from earlier work
# [6] = test system: peripheral blood lymphocytes (PBLs); assay: Proliferation assay ([3H]-thymidine) of CD3/CD28-stimulated PBLs from CAN patients; assay type: in vivo, human
# Procedure: Once identified, study subjects were randomized and treated with either losartan (25-100 mg) as part of their anti-hypertensive regimen or with other types of anti-hypertensive agents, e.g., calcium channel blockers. Agents functioning as AT1R blockers were excluded. Neither group received ACE inhibitors. Study subjects were maintained on their standard immunosuppressive regimen (corticosteroids 5-10 mg orally daily; mycophenolate mofetil 500 to 1000 mg orally twice a day; and calcineurin inhibition with either tacrolimus (target levels 2-5 ng/ml), cyclosporine A (target levels 100-150 ng/ml), or rapamycin (target levels 5-15 ng/ml ). Eight to nine milliliters of whole blood taken at each time point from each individual were incubated at room temperature in 40 ml ACK lysis buffer (150 mM NH4Cl, 10 mM KHCO3, 0.1 mM Na2EDTA, pH 7.3) for 10 minutes to lyse red blood cells. Samples were then centrifuged at 1000 rpm. The supernatant was discarded. Cells were resuspended in 10 ml complete RPMI media (RPMI-1640, BioWhitaker, Walkersville, Md.) supplemented with FCS (Sigma Aldrich, St. Louis, Mo.); 2 mM L-glutamine (BioWhitaker); 50 μM 2-β-mercaptoethanol (Sigma Aldrich); 100 U/ml penicillin; and 100 μg/ml streptomycin sulfate (Sigma Aldrich). Twenty μl of this sample was removed for cell enumeration. Forty ml of complete RPMI media was then added to the remaining sample and this was centrifuged at 1000 rpm for 10 minutes. The resulting PBL pellet was resuspended in complete RPMI media at a concentration of 1.5×10^6 cells per ml. CD3/CD28-coated plates were coated with antibody diluted in PBS (1 mg/mI). […] Some plates were analyzed immediately after the overnight incubation. Other plates were frozen at 20EC and then analyzed within 30 days of the initial study. [^3H]-Thymidine incorporation was then determined using a Packard TopCount NXT scintillation plate reader. […] The Δ proliferation index was then calculated by assessing the difference between the proliferation index at baseline and the proliferation index at various study time points as indicated.
# [7] = Systolic blood pressure in the study cohort; assay type: in vivo, human; details: every clinic visit at 3-month intervals
# Procedure: FIG. 1A is a graph depicting the systolic blood pressure in the study cohort. (The study cohort is described in the Examples.) Blood pressure was assessed at every clinic visit at 3-month intervals. […] Data shown are mean±standard deviation.”
# (§1) Once identified, study subjects were randomized and treated with either losartan (25-100 mg) as part of their anti-hypertensive regimen or with other types of anti-hypertensive agents, e.g., calcium channel blockers. Agents functioning as AT1R blockers were excluded. Neither group received ACE inhibitors. Study subjects were maintained on their standard immunosuppressive regimen (corticosteroids 5-10 mg orally daily; mycophenolate mofetil 500 to 1000 mg orally twice a day; and calcineurin inhibition with either tacrolimus (target levels 2-5 ng/ml), cyclosporine A (target levels 100-150 ng/ml), or rapamycin (target levels 5-15 ng/ml ).
# (§2) Study subjects underwent biopsies at the initiation of the study. Simultaneously, whole blood samples were obtained for analysis of peripheral blood lymphocyte proliferation and stimulated cytokine production. Subsequent whole blood samples were obtained at three-month intervals for serial analyses. […] Estimated glomerular filtration rate (eGFR) was assessed using the second equation derived by Nankivell. […]
# [8] = Estimated glomerular filtration rate (eGFR) in the study cohort; assay type: in vivo, human; details: with institution of ARB therapy, compared to control group
# Procedure: FIG. 1B is a graph depicting the estimated glomerular filtration rate (eGFR) in the study cohort. Estimated GFR was calculated using the second equation derived by Nankivell et al. at the time points designated in the Examples. […] The eGFR in the ARB-treated cohort (-o-) declined slightly after treatment as compared to the control group (-▪-). Data shown are mean±standard deviation.
# as §1
# as §2, with “production.” for “production. Subsequent whole blood samples were obtained at three-month intervals for serial analyses.”
# [9] = test system: urinary H2O2; assay: Detection of urinary hydrogen peroxide (H2O2) in kidney transplant recipients with CAN; assay type: in vivo, human; details: mean±SD
# Procedure: The study, enrollment process, and protocols described herein were approved by the University of Wisconsin Institutional Review Board. Individuals with evidence of chronic allograft dysfunction have allograft functionality greater than 6 months with serum creatinine≧0.3 mg/dl above discharge creatinine. In the absence of acute rejection, these individuals have obstructive uropathy or urinary tract infection. To be eligible for the study, individuals also had concomitant evidence of elevated blood pressure (>140/80) and/or proteinuria (>2+ on dipstick urinalysis or spot urine protein-to-creatinine ratio>1).
# as §1, §2
# The Amplex Red Hydrogen Peroxide/Peroxidase Assay Kit (Molecular Probes, Eugene, Ore.) was used according to the manufacturer's instructions to measure H2O2. […] A microplate reader with fluorescence emission detection at 590 nm was used to measure H2O2 levels. H2O2 concentrations were read from the standard curve.
# [10] = test system: STAT3; details: losartan treatment; cited from earlier work
smiles,measurement,setting,value
CCCCc1nc(Cl)c(C(=O)O)n1Cc1ccc(-c2ccccc2-c2nn[nH]n2)cc1 [active metabolite of losartan],plasma-free fraction,[1],0.2%
"CCCc1nc2c(C)cc(-c3nc4ccccc4n3C)cc2n1Cc1ccc(-c2ccccc2C(=O)O)cc1 [Telmisartan, 4′-[(1,4′-dimethyl-2′-propyl [2,6′-bi-1H-benzimidazol]-1′-yl)methyl]-[1,1′-biphenyl]-2-carboxylic acid]",solubility in strong acids,[2]; strong acids (except HCl),sparingly soluble
same,solubility in strong bases,[2]; strong bases,soluble
same,solubility in water within a pH range,"[2]; water, pH range of from 3 to 9",practically insoluble
"CCCCc1nc(Cl)c(CO)n1Cc1ccc(-c2ccccc2-c2nnn[nH]2)cc1.[K] [losartan, 2-butyl-4-chloro-1-[p-(o-1H-tetrazol-5-ylphenyl)benzyl]imidazole-5-methanol monopotassium salt]",IL-4 or IL-5 production,[3],no significant change
same,IFN-Γ producing cells (ELISpot),"[4]; 3 months, p=0.01 vs control",4127±1289 spots per 1×10^6 cells
same,IFN-Γ producing cells (ELISpot),"[4]; 6 months, p=0.05 vs control",3899±1508 spots per 1×10^6 cells
same,IFN-Γ producing cells (ELISpot),"[4]; 9 months, p<0.001 vs control",3845±1493 spots per 1×10^6 cells
same,IFN-Γ producing cells (ELISpot),"[4]; 12 months, p<0.05 vs control",4276±1456 spots per 1×10^6 cells
same,plasma-free fraction,[1],1.3%
same,phosphorylation of STAT1,[5],decrease phosphorylation
same,reduction in T lymphocyte proliferation indices versus the control group,"[6]; 6 month of losartan treatment, p<0.005",69±47 % decrease
same,reduction in T lymphocyte proliferation indices versus the control group,"[6]; 9 month of losartan treatment, p<0.05",52±21 % decrease
same,Δ proliferation index (change from baseline),"[6]; three, six, and nine months, p<0.04",significant reduction
same,solubility in common organic solvents,[2]; acetonitrile and methyl ethyl ketone,slightly soluble
same,solubility in alcohols,[2]; alcohols,soluble
same,solubility in water,[2]; water,freely soluble
same,"systolic blood pressure, ARB-treated versus non-ARB-treated cohort",[7],no significant differences
same,eGFR,[8],slight reduction
same,urinary H2O2 excretion,[9]; 6 months of treatment,2.17 ± 0.42 µM
same,urinary H2O2 excretion,"[9]; 9 months of treatment, p<0.05 vs. time 0",1.65 ± 0.49 µM
same,urinary H2O2,"[9]; baseline (time 0), ARB cohort",2.51 ± 0.62 µM
same,phosphorylation of STAT3,[10],decrease phosphorylation

# Source: US20050282877A1, “Method of decreasing inflammation in kidney transplantion using angiotensin receptor blockers” (priority 2004, published 2005)
